In EP0813412B1, “GEL FOR THE LOCAL HORMONOTHERAPY OF VAGINAL DRYNESS” (priority 1995, dated 1997):

Legend:
[1] = assay type: in vivo, femme
Method: Une première solution consiste à réduire la teneur en principe actif, typiquement à des doses de 5 µg ou même 2,5 µg par application unitaire.

[2] = Clinical trial, repeated vaginal application for 13 days: clinical and biological tolerance; assay type: in vivo, femme; conditions: 10 µg vaginal, repeated for 13 days
Text: Ces événements d'intensité mineure n'ont pas empêché la poursuite de l'étude. La tolérance biologique a été excellente. Aucune anomalie ayant une signification clinique n'a été rapportée.

[3] = test system: récepteurs à haute affinité pour l'estradiol au niveau de l'épithélium vaginal; conditions: estrogen receptors; cited from earlier work
[4] = 10 µg, free micronised form in gel, single dose

Structure (SMILES): C[C@]12CC[C@@H]3c4ccc(O)cc4CC[C@H]3[C@@H]1CC[C@@H]2O [17β-estradiol]
- surface sous la courbe ([1]; 10 µg vaginal gel, steady state): comparable à celle obtenue après la première application
- pic plasmatique d'estradiol ([1]; 10 µg vaginal gel, steady state compared with first application): tend à être plus faible et retardé
- concentration plasmatique maximale du pic [1, 4]: du même ordre que le taux physiologique moyen observés la première semaine de la phase folliculaire chez la femme fertile
- time of the plasma peak (pic plasmatique) [1, 4]: une heure environ
- tolérance biologique [2]: excellente
- tolérance clinique ([2]; sixteen subjects, free micronised form in gel): excellente pour treize sujets sur seize
- effets indésirables (céphalées, épisodes de vomissements et bouffées de chaleur) ([2]; sixteen subjects, minor intensity): Trois sujets ont signalé des effets indésirables

Structure (SMILES): C[C@]12CC[C@@H]3c4ccc(O)cc4CC[C@H]3[C@@H]1C[C@@H](O)[C@@H]2O [estriol]
- activity profile (agonist / antagonist) [3]: agoniste partiel, voire d'antagoniste
